Laboratory results taken from patent publication US11168364B2, “Method and system for sequencing nucleic acids” (priority 2016, dated 2021).

Target: T1, Bsu DNA polymerase large fragment / primed template nucleic acid (Bacillus subtilis, UniProt O34996)
T1 construct: 350 U/ml Bsu DNA polymerase large fragment
T1 sequence (O34996 297-880 limits assumed): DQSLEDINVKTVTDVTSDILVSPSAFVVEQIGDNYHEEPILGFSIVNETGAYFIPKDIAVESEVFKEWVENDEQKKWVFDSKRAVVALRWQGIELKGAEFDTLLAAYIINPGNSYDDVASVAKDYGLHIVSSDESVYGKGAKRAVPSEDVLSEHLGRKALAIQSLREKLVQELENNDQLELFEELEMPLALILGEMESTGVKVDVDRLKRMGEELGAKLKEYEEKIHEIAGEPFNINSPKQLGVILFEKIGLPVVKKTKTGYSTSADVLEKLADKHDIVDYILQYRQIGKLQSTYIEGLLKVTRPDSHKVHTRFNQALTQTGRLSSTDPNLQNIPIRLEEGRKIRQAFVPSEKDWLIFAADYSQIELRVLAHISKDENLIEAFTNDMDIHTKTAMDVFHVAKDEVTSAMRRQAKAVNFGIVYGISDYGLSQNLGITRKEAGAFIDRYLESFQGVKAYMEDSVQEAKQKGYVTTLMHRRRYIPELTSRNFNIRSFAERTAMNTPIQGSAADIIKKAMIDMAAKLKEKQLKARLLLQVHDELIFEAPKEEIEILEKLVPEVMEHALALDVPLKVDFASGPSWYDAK
Test: Biolayer interferometry of polymerase binding to immobilized primed template with cognate or non-cognate nucleotide, salt titration (Example 19)
Conditions: for Ternary Complex Signal (Δλ, nm): dCTP (cognate); for Binary Complex Signal (Δλ, nm): dGTP (non-cognate)
From the text: A FORTEBIO® (Menlo Park, Calif.) OCTET® instrument employing biolayer interferometry to measure binding reactions at the surface of a fiber optic tip was used in a multiwell plate format to investigate differential stability of binary and ternary complexes. Template strands biotinylated at their 5′-ends were used to immobilize the primed template nucleic acid onto fiber optic tips functionalized with streptavidin (SA) according to standard procedures. […] Tips were first equilibrated in a Tris-buffered solution containing 30 mM Tris-HCl (pH 8.0), and 0.1 mM EDTA before commencing the cycling protocol. Independent binding reactions for the two test nucleotides (i.e., cognate and non-cognate nucleotides) were carried out in the presence of concentrations of NaCl, KCl, or potassium glutamate that varied from 50 mM to 500 mM. […] In all instances, the reaction mixture used during the examination step contained Tris-HCl (pH 8.0), 0.01% Tween-20, 100 μg/ml BSA, 2 mM NiSO4, 350 U/ml Bsu DNA polymerase large fragment; and one of the nucleotides at a concentration of 100 μM (dCTP was used as a cognate nucleotide, and dGTP was used as a non-cognate nucleotide). Following each examination step, tips were exposed to a buffer containing 30 mM Tris-HCl (pH 8.0), 500 mM KCl, 2 mM EDTA and 0.05% Tween-20 for 20 seconds to strip enzyme complexes from the primed template nucleic acid. The stripping step was followed by a 15 second exposure to examination buffer without enzyme, dNTP or divalent cations to regenerate tips for the next cycle of examination. When using a single contacting step to effect binding of polymerase and nucleotide to the primed template nucleic acid, the binding step was 45 seconds long, with binding interactions being monitored continuously. This was accomplished by contacting the primed template nucleic acid with a single solution that included the polymerase and test nucleotide. Results from interferometry monitoring were analyzed to identify formation of ternary complexes (i.e., identifying cognate nucleotide) or binary complexes (i.e., identifying non-cognate nucleotide).

[1] = KCl 50 mM + fixed 160 mM potassium glutamate
[2] = KCl 75 mM + fixed 160 mM potassium glutamate
[3] = KCl 100 mM + fixed 160 mM potassium glutamate
[4] = KCl 125 mM + fixed 160 mM potassium glutamate
[5] = KCl 150 mM + fixed 160 mM potassium glutamate
[6] = KCl 175 mM + fixed 160 mM potassium glutamate
[7] = KCl 200 mM + fixed 160 mM potassium glutamate
[8] = KCl 225 mM + fixed 160 mM potassium glutamate
[9] = KCl 250 mM + fixed 160 mM potassium glutamate
[10] = KCl 275 mM + fixed 160 mM potassium glutamate
[11] = KCl 300 mM + fixed 160 mM potassium glutamate
[12] = KCl 325 mM + fixed 160 mM potassium glutamate
[13] = KCl 350 mM + fixed 160 mM potassium glutamate
[14] = KCl 375 mM + fixed 160 mM potassium glutamate
[15] = KCl 400 mM + fixed 160 mM potassium glutamate
[16] = KCl 425 mM + fixed 160 mM potassium glutamate
[17] = KCl 450 mM + fixed 160 mM potassium glutamate
[18] = KCl 475 mM + fixed 160 mM potassium glutamate
[19] = KCl 500 mM + fixed 160 mM potassium glutamate

[Cl-].[K+] [KCl]
Fold Enhancement (Ternary/Binary) (KCl 50 mM): 1.03
Fold Enhancement (Ternary/Binary) [1]: 1.24
Ternary Complex Signal (Δλ, nm) [1]: 1.57 nm
Binary Complex Signal (Δλ, nm) [1]: 1.27 nm
Ternary Complex Signal (Δλ, nm) (KCl 50 mM): 2.98 nm
Binary Complex Signal (Δλ, nm) (KCl 50 mM): 2.90 nm
Fold Enhancement (Ternary/Binary) (KCl 75 mM): 0.97
Fold Enhancement (Ternary/Binary) [2]: 1.41
Ternary Complex Signal (Δλ, nm) [2]: 1.49 nm
Binary Complex Signal (Δλ, nm) [2]: 1.06 nm
Ternary Complex Signal (Δλ, nm) (KCl 75 mM): 2.59 nm
Binary Complex Signal (Δλ, nm) (KCl 75 mM): 2.68 nm
Fold Enhancement (Ternary/Binary) (KCl 100 mM): 1.00
Fold Enhancement (Ternary/Binary) [3]: 1.71
Ternary Complex Signal (Δλ, nm) [3]: 1.52 nm
Binary Complex Signal (Δλ, nm) [3]: 0.89 nm
Ternary Complex Signal (Δλ, nm) (KCl 100 mM): 2.29 nm
Binary Complex Signal (Δλ, nm) (KCl 100 mM): 2.29 nm
Fold Enhancement (Ternary/Binary) (KCl 125 mM): 0.98
Fold Enhancement (Ternary/Binary) [4]: 2.05
Ternary Complex Signal (Δλ, nm) [4]: 1.44 nm
Binary Complex Signal (Δλ, nm) [4]: 0.70 nm
Ternary Complex Signal (Δλ, nm) (KCl 125 mM): 1.93 nm
Binary Complex Signal (Δλ, nm) (KCl 125 mM): 1.98 nm
Fold Enhancement (Ternary/Binary) (KCl 150 mM): 1.00
Fold Enhancement (Ternary/Binary) [5]: 2.46
Ternary Complex Signal (Δλ, nm) [5]: 1.40 nm
Binary Complex Signal (Δλ, nm) [5]: 0.57 nm
Ternary Complex Signal (Δλ, nm) (KCl 150 mM): 1.67 nm
Binary Complex Signal (Δλ, nm) (KCl 150 mM): 1.67 nm
Fold Enhancement (Ternary/Binary) (KCl 175 mM): 0.99
Fold Enhancement (Ternary/Binary) [6]: 3.31
Ternary Complex Signal (Δλ, nm) [6]: 1.30 nm
Binary Complex Signal (Δλ, nm) [6]: 0.39 nm
Ternary Complex Signal (Δλ, nm) (KCl 175 mM): 1.41 nm
Binary Complex Signal (Δλ, nm) (KCl 175 mM): 1.43 nm
Fold Enhancement (Ternary/Binary) (KCl 200 mM): 1.08
Fold Enhancement (Ternary/Binary) [7]: 4.15
Ternary Complex Signal (Δλ, nm) [7]: 1.19 nm
Binary Complex Signal (Δλ, nm) [7]: 0.29 nm
Ternary Complex Signal (Δλ, nm) (KCl 200 mM): 1.30 nm
Binary Complex Signal (Δλ, nm) (KCl 200 mM): 1.20 nm
Fold Enhancement (Ternary/Binary) (KCl 225 mM): 1.17
Fold Enhancement (Ternary/Binary) [8]: 5.35
Ternary Complex Signal (Δλ, nm) [8]: 1.12 nm
Binary Complex Signal (Δλ, nm) [8]: 0.21 nm
Ternary Complex Signal (Δλ, nm) (KCl 225 mM): 1.20 nm
Binary Complex Signal (Δλ, nm) (KCl 225 mM): 1.03 nm
Fold Enhancement (Ternary/Binary) (KCl 250 mM): 1.35
Fold Enhancement (Ternary/Binary) [9]: 7.02
Ternary Complex Signal (Δλ, nm) [9]: 0.98 nm
Binary Complex Signal (Δλ, nm) [9]: 0.14 nm
Ternary Complex Signal (Δλ, nm) (KCl 250 mM): 1.11 nm
Binary Complex Signal (Δλ, nm) (KCl 250 mM): 0.82 nm
Fold Enhancement (Ternary/Binary) (KCl 275 mM): 1.51
Fold Enhancement (Ternary/Binary) [10]: 9.07
Ternary Complex Signal (Δλ, nm) [10]: 0.88 nm
Binary Complex Signal (Δλ, nm) [10]: 0.10 nm
Ternary Complex Signal (Δλ, nm) (KCl 275 mM): 1.02 nm
Binary Complex Signal (Δλ, nm) (KCl 275 mM): 0.67 nm
Fold Enhancement (Ternary/Binary) (KCl 300 mM): 2.04
Fold Enhancement (Ternary/Binary) [11]: 8.34
Ternary Complex Signal (Δλ, nm) [11]: 0.76 nm
Binary Complex Signal (Δλ, nm) [11]: 0.09 nm
Ternary Complex Signal (Δλ, nm) (KCl 300 mM): 0.96 nm
Binary Complex Signal (Δλ, nm) (KCl 300 mM): 0.47 nm
Fold Enhancement (Ternary/Binary) (KCl 325 mM): 1.97
Fold Enhancement (Ternary/Binary) [12]: 8.97
Ternary Complex Signal (Δλ, nm) [12]: 0.65 nm
Binary Complex Signal (Δλ, nm) [12]: 0.07 nm
Ternary Complex Signal (Δλ, nm) (KCl 325 mM): 0.71 nm
Binary Complex Signal (Δλ, nm) (KCl 325 mM): 0.36 nm
Fold Enhancement (Ternary/Binary) (KCl 350 mM): 3.72
Fold Enhancement (Ternary/Binary) [13]: 7.94
Ternary Complex Signal (Δλ, nm) [13]: 0.54 nm
Binary Complex Signal (Δλ, nm) [13]: 0.07 nm
Ternary Complex Signal (Δλ, nm) (KCl 350 mM): 0.64 nm
Binary Complex Signal (Δλ, nm) (KCl 350 mM): 0.17 nm
Fold Enhancement (Ternary/Binary) (KCl 375 mM): 3.21
Fold Enhancement (Ternary/Binary) [14]: 12.46
Ternary Complex Signal (Δλ, nm) [14]: 0.45 nm
Binary Complex Signal (Δλ, nm) [14]: 0.04 nm
Ternary Complex Signal (Δλ, nm) (KCl 375 mM): 0.49 nm
Binary Complex Signal (Δλ, nm) (KCl 375 mM): 0.15 nm
Fold Enhancement (Ternary/Binary) (KCl 400 mM): 9.48
Fold Enhancement (Ternary/Binary) [15]: 13.75
Ternary Complex Signal (Δλ, nm) [15]: 0.37 nm
Binary Complex Signal (Δλ, nm) [15]: 0.03 nm
Ternary Complex Signal (Δλ, nm) (KCl 400 mM): 0.39 nm
Binary Complex Signal (Δλ, nm) (KCl 400 mM): 0.04 nm
Fold Enhancement (Ternary/Binary) (KCl 425 mM): 85.77
Fold Enhancement (Ternary/Binary) [16]: 13.28
Ternary Complex Signal (Δλ, nm) [16]: 0.31 nm
Binary Complex Signal (Δλ, nm) [16]: 0.02 nm
Ternary Complex Signal (Δλ, nm) (KCl 425 mM): 0.28 nm
Binary Complex Signal (Δλ, nm) (KCl 425 mM): 0.00 nm
Fold Enhancement (Ternary/Binary) (KCl 450 mM): 16.47
Fold Enhancement (Ternary/Binary) [17]: 7.24
Ternary Complex Signal (Δλ, nm) [17]: 0.25 nm
Binary Complex Signal (Δλ, nm) [17]: 0.03 nm
Ternary Complex Signal (Δλ, nm) (KCl 450 mM): 0.19 nm
Binary Complex Signal (Δλ, nm) (KCl 450 mM): 0.01 nm
Fold Enhancement (Ternary/Binary) (KCl 475 mM): 4.89
Fold Enhancement (Ternary/Binary) [18]: 4.54
Ternary Complex Signal (Δλ, nm) [18]: 0.22 nm
Binary Complex Signal (Δλ, nm) [18]: 0.05 nm
Ternary Complex Signal (Δλ, nm) (KCl 475 mM): 0.14 nm
Binary Complex Signal (Δλ, nm) (KCl 475 mM): 0.03 nm
Fold Enhancement (Ternary/Binary) (KCl 500 mM): 2.69
Fold Enhancement (Ternary/Binary) [19]: 2.97
Ternary Complex Signal (Δλ, nm) [19]: 0.21 nm
Binary Complex Signal (Δλ, nm) [19]: 0.07 nm
Ternary Complex Signal (Δλ, nm) (KCl 500 mM): 0.09 nm
Binary Complex Signal (Δλ, nm) (KCl 500 mM): 0.04 nm
salt concentration of maximum signal ratios for ternary over binary complexes (no glutamate salt): about 450 mM
